In patent US12492225B2, “Melanocyte-regulating peptides” (IDP DISCOVERY PHARMA, S.L., priority 2019, dated 2025):

Tested on: B16-F10 melanoma cells
Experiment: Measurement of melanin content in B16-F10 melanoma cells
Assay type: cell-based, mouse
Settings: KA at 1 uM; FIG. 1
Procedure: B16-F10 melanoma cells were seeded into 25 cm^2 cell culture flask and incubated for 24 h. Then, 0.1 μM α-MSH was added and cells were treated with the aforementioned peptides at doses lower than their respective IC50 for a total of 48 h incubation. After washing twice with phosphate buffered saline, cells were dissolved in 1 mL of 1N NaOH. For measurement of melanin content, 100 μL aliquots of solution were then placed in 96-well plates and the absorbance was measured at 450 nm using microplate reader. Anti-melanin activity was expressed by the percentage of melanin to that of untreated melanoma cells. As positive control Kojic Acid (KA) was used at different concentrations (0.1, 1 and 10 μM).

## O=c1cc(CO)occ1O [KA, kojic acid]
  reduction of melanin compared with the peptides of the invention (F22) at the same concentration: the reduction was substantially lower
